The values below come from patent publication US20160272620A1 (priority 2013, published 2016).

For series [1] the following is noted: rat brain microdialysis, HPLC/UV; cited from earlier work.
Series [2] addresses T1, paraoxon-hAChE (Homo sapiens, UniProt P22303). Format: biochemical.
For series [3], the target named is T1, paraoxon-hAChE. The settings on record: cited from earlier work.

Structures are written as SMILES. Read-outs that look alike come from different tables or passages of the source.

T1 sequence (P22303 32-574): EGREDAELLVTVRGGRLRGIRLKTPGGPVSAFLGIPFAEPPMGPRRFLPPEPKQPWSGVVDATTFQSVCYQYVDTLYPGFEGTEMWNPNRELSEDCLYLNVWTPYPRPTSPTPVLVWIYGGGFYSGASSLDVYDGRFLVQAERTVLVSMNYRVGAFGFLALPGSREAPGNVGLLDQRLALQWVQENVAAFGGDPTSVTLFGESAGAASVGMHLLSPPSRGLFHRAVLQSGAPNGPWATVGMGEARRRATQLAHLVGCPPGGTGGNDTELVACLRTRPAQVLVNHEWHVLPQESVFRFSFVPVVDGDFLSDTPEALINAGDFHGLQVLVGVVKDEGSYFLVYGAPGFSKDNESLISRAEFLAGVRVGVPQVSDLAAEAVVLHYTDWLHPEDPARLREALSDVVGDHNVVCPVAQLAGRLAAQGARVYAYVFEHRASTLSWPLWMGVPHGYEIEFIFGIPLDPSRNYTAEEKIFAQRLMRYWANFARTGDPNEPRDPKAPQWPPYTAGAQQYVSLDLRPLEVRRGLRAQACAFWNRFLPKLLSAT

As for `C[n+]1ccccc1/C=N/O` [Compound 2-PAM], in series [1], the BBB penetration is given as 10%.

`ON=Cc1nccc(CCCCCNc2c3c(nc4ccccc24)CCCC3)c1O` [Compound 10, 2-[(hydroxyimino)methyl]-4-{5-[(1,2,3,4-tetrahydroacridin-9-yl)amino]pentyl}pyridin-3-ol]: on paraoxon-hAChE [2], the “reactivation of paraoxon inhibited hAChE” value was “no reactivation”.

On to `O/N=C/c1nc(CCCCCNc2c3c(nc4ccccc24)CCCC3)ccc1O` [Compound 11, 2-[(1E)-(hydroxyimino)methyl]-6-{5-[(1,2,3,4-tetrahydroacridin-9-yl)amino]pentyl}pyridin-3-ol], for which, on paraoxon-hAChE [2], the kr was determined as 0.0228 ± 0.0006 min⁻¹ and the kr2 amounted to 20.9 mM⁻¹ min⁻¹.

At paraoxon-hAChE [2], `ON=Cc1nc(CCCCNc2c3c(nc4ccccc24)CCCC3)ccc1O` [Compound 12, 2-[1-(hydroxyimino)methyl]-6-{4-[(1,2,3,4-tetrahydroacridin-9-yl)amino]butyl}pyridin-3-ol] returned a kr of 0.111 ± 0.002 min⁻¹ and a kr2 of 31 mM⁻¹ min⁻¹.

Turning to `ON=Cc1nc(CCCCNc2c3c(nc4ccc(Cl)cc24)CCCC3)ccc1O` [Compound 15, 6-(4-((7-Chloro-1,2,3,4-tetrahydroacridin-9-yl)amino)butyl)-3-hydroxy-picolin-aldehyde oxime], at paraoxon-hAChE [2], the kr worked out at 0.11 ± 0.01 min⁻¹ and the kr2 is 19 mM⁻¹ min⁻¹.

Turning to `ON=Cc1cc[n+](CCC[n+]2ccc(/C=N/O)cc2)cc1` [Trimedoxime], on paraoxon-hAChE [3], the kr was 0.34 ± 0.02 ^a min^−1 and the kr2 is given as 17 ^a mM^−1min^−1.
